Data taken from paper PMC11891579, “Fluorescent PyrAte-(S)-citalopram conjugates enable imaging of the serotonin transporter in living tissue” (Chemical Science, 2025).

Legend:
Type in all cases: cell-based
[1] = target: T1, YhOCT3 (Homo sapiens, UniProt O75751); test: radioligand uptake inhibition assay ([3H]MPP+); conditions: for IC50: HEK293 stably expressing YhOCT3, 50 nM [3H]MPP+, mean and SD, N = 3-6, read-out: IC50, uptake inhibition at OCT3 (YhOCT3); for Hill coefficient nH at OCT3: uptake inhibition curve
T1 construct: expressed in transfected cells
T1 sequence (O75751 1-556): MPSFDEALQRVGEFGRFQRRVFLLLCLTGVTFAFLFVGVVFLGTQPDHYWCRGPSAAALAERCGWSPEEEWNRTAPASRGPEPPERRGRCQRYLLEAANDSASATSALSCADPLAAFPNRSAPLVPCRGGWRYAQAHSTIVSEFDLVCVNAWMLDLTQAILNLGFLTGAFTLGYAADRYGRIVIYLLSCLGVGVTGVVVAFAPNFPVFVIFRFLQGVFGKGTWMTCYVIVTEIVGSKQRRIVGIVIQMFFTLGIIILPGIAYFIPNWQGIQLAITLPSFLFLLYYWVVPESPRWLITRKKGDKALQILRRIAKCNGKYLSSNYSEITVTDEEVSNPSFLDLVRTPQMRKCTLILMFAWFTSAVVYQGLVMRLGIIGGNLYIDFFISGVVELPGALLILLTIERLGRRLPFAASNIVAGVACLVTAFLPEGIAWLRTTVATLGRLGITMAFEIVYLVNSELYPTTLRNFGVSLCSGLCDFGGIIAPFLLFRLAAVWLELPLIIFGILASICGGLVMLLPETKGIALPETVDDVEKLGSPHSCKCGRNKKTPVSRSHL
Description: (§1) 1. Biological characterization
(§2) 1.1. Experimental methods
(§3) Buffer and solution compositions (in mM) are as follows:
(§4) Krebs-HEPES buffer (KHB): 120 NaCl, 3 KCl, 2 CaCl2, 2 MgCl2, 20 glucose, 10 HEPES NaOH, pH = 7.3 – 7.4. […]
(§5) 10 mM glucose, 1.25 mM NaH2PO4, pH = 7.4 (oxygenated with 95% O2, 5% CO2).
(§6) Human embryonic kidney 293 cells (HEK293) stably expressing the mCherry-tagged, YFP-tagged, and GFP-tagged human isoforms of SERT (mCherry-SERT, YhSERT, GhSERT), DAT (YhDAT), NET (hNET), and OCT3 (YhOCT3) were cultured in Dulbecco's modified Eagle's medium (DMEM) with high glucose (4.5 g/L) and l-glutamine (584 mg/L), supplemented with 10% fetal calf serum (FCS), 100 units/mL penicillin and 100 µg/mL streptomycin. The cells were cultured in a humidified atmosphere (37 °C, 5% CO2). Geneticin (50 µg/mL), Blasticidin (6 µg/mL), and Zeocin® (150 µg/mL) were added to maintain the selection pressure for the stable cell lines. Cells were typically seeded 24 hours prior to the experiments.
(§7) For uptake inhibition experiments, cells were seeded at 3.6 x 10^4 cells/0.2 mL into 96-well plates coated […]
(§8) with poly-d-lysine (PDL). […]
(§9) For uptake inhibition experiments, the cell medium was aspirated and the cells were washed once with 0.2 mL/well KHB at room temperature. The cells were pre-incubated with increasing concentrations of the substance of interest, diluted in KHB (0.05 mL/well). The pre-incubation solution was replaced with 0.05 mL/well KHB solution still containing the substance of interest and additionally the tritiated substrate (100 nM [3H]DA for YhDAT; 100 nM [3H]5HT for YhSERT; 20 nM and 50 nM [3H]MPP+ for hNET and YhOCT3), after 6 minutes (YhSERT), 5 minutes (YhDAT, hNET), or 10 minutes (YhOCT3). Substrate uptake was stopped after one minute (for [3H]DA and [3H]5HT), three minutes, or […]
The KHB was aspirated immediately. […] Non-specific uptake was determined in the presence of 30 µM paroxetine (for YhSERT), 50 µM GBR12909 (for YhDAT and hNET), or 100 µM decynium-22 (for YhOCT3). […]
[3H]-imipramine, and increasing concentrations of test compound, for 60 min at 20 – 22 °C. […] The amount of radioactivity in the filters was measured using a Tri-Carb 2800TR liquid scintillation analyzer (PerkinElmer). The Ki was calculated from the measured IC50 using the Cheng-Prusoff equation.
Prior to imaging, cell culture medium was replaced with pre-warmed KHB. […] PyrAtes were excited using a 405 nm laser, and its fluorescent signals collected using 525/50 nm emission filters; mCherry was excited using a 561 nm laser, and fluorescence was collected using 595/50 nm emission filters. […]
5HT-mediated currents were measured at room temperature (20-25°C) using whole-cell patch clamp in HEK293 cells stably expressing SERT. […]

[2] = target: T2, hNET (Homo sapiens, UniProt P23975); test: radioligand uptake inhibition assay ([3H]MPP+); conditions: for IC50: HEK293 stably expressing hNET, 20 nM [3H]MPP+, mean and SD, N = 3-6, read-out: IC50, uptake inhibition at NET (hNET); for Hill coefficient nH at NET: uptake inhibition curve
T2 construct: expressed in transfected cells
T2 sequence (P23975 whole entry): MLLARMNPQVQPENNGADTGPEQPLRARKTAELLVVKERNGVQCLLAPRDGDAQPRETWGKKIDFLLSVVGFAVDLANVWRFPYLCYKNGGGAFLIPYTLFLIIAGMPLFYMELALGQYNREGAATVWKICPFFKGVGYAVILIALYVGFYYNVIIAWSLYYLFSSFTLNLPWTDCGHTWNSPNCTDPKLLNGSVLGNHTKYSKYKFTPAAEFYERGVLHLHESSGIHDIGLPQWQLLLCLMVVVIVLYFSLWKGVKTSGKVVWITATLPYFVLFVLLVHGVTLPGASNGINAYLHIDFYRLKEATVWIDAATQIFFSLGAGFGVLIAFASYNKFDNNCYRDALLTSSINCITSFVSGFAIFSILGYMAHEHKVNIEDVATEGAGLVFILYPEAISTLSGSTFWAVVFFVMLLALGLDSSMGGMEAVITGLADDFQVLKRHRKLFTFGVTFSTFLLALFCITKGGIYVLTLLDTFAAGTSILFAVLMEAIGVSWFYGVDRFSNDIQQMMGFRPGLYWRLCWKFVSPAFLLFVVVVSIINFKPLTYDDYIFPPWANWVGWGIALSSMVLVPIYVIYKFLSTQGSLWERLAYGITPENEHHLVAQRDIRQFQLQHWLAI
Description: as §1, §2, §3, §4, §5, §6, §7, §8, §9
(§10) ten minutes (for [3H]MPP+), by exchange of the substrate-containing buffer with 0.2 mL ice-cold KHB.
(§11) The KHB was aspirated immediately. Cells were lysed and prepared for [3H] content analysis by adding 0.2 mL Ultima Gold™ XR liquid scintillation cocktail. Measurements were performed in a 1450 MicroBeta microplate liquid scintillation counter. Non-specific uptake was determined in the presence of 30 µM paroxetine (for YhSERT), 50 µM GBR12909 (for YhDAT and hNET), or 100 µM decynium-22 (for YhOCT3). […]

[3] = target: T3, YhSERT (Homo sapiens, UniProt P31645); test: radioligand uptake inhibition assay ([3H]5HT); conditions: for IC50: HEK293 stably expressing YhSERT, 100 nM [3H]5HT, mean and SD, N = 3-6, read-out: IC50, uptake inhibition at SERT (YhSERT); for selectivity to SERT vs. DAT / selectivity to SERT vs. NET / selectivity to SERT vs. OCT3: from uptake inhibition IC50; for decrease of SERT affinity (IC50) compared to (S)-citalopram: uptake inhibition IC50; for Hill coefficient nH at SERT: uptake inhibition curve
T3 construct: expressed in transfected cells
T3 sequence (P31645 whole entry): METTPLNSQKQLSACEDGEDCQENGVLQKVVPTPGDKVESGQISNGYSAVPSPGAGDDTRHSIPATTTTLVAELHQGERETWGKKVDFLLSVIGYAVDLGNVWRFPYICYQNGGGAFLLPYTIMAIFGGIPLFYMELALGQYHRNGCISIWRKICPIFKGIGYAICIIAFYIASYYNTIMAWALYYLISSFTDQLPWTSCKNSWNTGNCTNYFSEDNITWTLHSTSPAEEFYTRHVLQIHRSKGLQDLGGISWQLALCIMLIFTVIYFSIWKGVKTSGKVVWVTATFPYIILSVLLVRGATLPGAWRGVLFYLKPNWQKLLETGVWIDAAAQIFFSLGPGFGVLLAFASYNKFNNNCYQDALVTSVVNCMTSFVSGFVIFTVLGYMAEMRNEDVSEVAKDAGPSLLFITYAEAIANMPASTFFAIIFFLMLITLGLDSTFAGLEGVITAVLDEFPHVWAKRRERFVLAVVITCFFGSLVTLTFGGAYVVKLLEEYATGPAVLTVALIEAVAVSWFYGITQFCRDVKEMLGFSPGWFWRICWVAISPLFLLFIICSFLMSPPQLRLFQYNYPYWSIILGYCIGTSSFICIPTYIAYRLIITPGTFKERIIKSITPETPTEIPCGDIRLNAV
Description: as §1, §2, §3, §4, §5, §6, §7, §8, §9, §10, §11

| IC50 [1] | Hill coefficient nH at OCT3 [1] | IC50 [2] | Hill coefficient nH at NET [2] | IC50 [3] | selectivity to SERT vs. DAT [3] | selectivity to SERT vs. NET [3] | selectivity to SERT vs. OCT3 [3] | decrease of SERT affinity (IC50) compared to (S)-citalopram [3] | Hill coefficient nH at SERT [3] | Structure (SMILES) |
| --- | --- | --- | --- | --- | --- | --- | --- | --- | --- | --- |
| 3320 nM | −2.1 | 10900 nM | −1.0 | 400 nM | around 10 fold | 27 fold | 8.2 fold | 10 fold | −3.0 | CCN(CC)c1ccc(-c2cc[n+]3c(-c4ccccc4)c(N4CCCC4)n(CCCC(=O)NCc4ccc5c(c4)CO[C@@]5(CCCN(C)C)c4ccc(F)cc4)c3c2)cc1 [PYR-C3-CIT, PyrAte-C3-(S)-citalopram] |
| 2100 nM | −2.3 | 12600 nM | −1.3 | 830 nM | 2.5 fold | 15 fold | 2.5 fold | around 20 fold | −3.1 | CCN(CC)c1ccc(-c2cc[n+]3c(-c4ccccc4)c(N4CCCC4)n(CCCCCCC(=O)NCc4ccc5c(c4)CO[C@@]5(CCCN(C)C)c4ccc(F)cc4)c3c2)cc1 [PYR-C6-CIT, PyrAte-C6-(S)-citalopram] |
